Assay results published in ChEMBL document CHEMBL1955821, “Biotransformations of 6',7'-dihydroxybergamottin and 6',7'-epoxybergamottin by the citrus-pathogenic fungi diminish cytochrome P450 3A4 inhibitory activity” (Bioorg Med Chem Lett, 2012).
Values belong to the molecule of their own block, whether it stands above or below them.

How the values were obtained:
Cytochrome P450 3A4 = Cytochrome P450 3A4 (Homo sapiens, UniProt P08684); test: Inhibition of CYP3A4 after 30 mins by fluorescence assay; format: ADME
Chain of Cytochrome P450 3A4 (P08684 whole entry): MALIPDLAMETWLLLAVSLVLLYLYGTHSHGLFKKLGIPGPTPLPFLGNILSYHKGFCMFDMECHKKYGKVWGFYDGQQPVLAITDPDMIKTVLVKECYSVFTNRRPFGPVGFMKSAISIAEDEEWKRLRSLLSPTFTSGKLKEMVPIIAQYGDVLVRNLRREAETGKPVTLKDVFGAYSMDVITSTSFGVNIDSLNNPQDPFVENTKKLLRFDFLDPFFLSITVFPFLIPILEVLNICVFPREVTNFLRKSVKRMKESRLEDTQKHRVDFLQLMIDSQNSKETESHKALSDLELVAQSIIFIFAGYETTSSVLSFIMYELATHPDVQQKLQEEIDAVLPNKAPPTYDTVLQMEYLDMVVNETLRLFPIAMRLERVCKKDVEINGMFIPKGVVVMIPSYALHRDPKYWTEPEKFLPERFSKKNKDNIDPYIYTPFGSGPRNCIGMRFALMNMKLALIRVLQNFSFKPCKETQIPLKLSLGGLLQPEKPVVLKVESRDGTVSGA

Botrytis cinerea [1] = test: Drug metabolism in Botrytis cinerea assessed as compound level at 78.2 uM after 5 days; format: ADME, organism-based; settings: in vivo, 120 h
[2] = Drug metabolism in Penicillium ulaiense assessed as production of 6,7-furano-5-(6',7'-dihydroxygeranyloxy)-2-hydroxy-hydrocoumaric acid at 23.7 uM after 2 days; format: ADME; settings: 48 h
[3] = Drug metabolism in Penicillium ulaiense assessed as production of 6,7-furano-5-(6',7'-dihydroxygeranyloxy)-2-hydroxy-hydrocoumaric acid at 23.7 uM upto 10 days; format: ADME; settings: 240 h
Lasiodiplodia theobromae [4] = test: Drug metabolism in Lasiodiplodia theobromae assessed as bergaptol level at 78.2 uM after 5 days; format: ADME, organism-based; settings: in vivo, 120 h
Geotrichum [5] = test: Drug metabolism in Geotrichum citri assessed as bergaptol level at 78.2 uM after 5 days; format: ADME, organism-based; settings: in vivo, 120 h
[6] = Drug metabolism in Phomopsis citri assessed as 6',7'-dihydroxybergamottin level at 78.2 uM after 5 days; format: ADME; settings: diaporthe citri, 120 h
[7] = Drug metabolism in Penicillium ulaiense assessed as production of bergaptol at 23.7 uM up to 10 days; format: ADME; settings: 240 h
Geotrichum [8] = test: Drug metabolism in Geotrichum citri assessed as compound level at 78.2 uM after 5 days; format: ADME, organism-based; settings: in vivo, 120 h
Lasiodiplodia theobromae [9] = test: Drug metabolism in Lasiodiplodia theobromae assessed as 6',7'-dihydroxybergamottin level at 78.2 uM after 5 days; format: ADME, organism-based; settings: in vivo, 120 h
Lasiodiplodia theobromae [10] = test: Drug metabolism in Lasiodiplodia theobromae assessed as 6,7-furano-5-(6',7'-dihydroxygeranyloxy)-2-hydroxy-hydrocoumaric acid level at 78.2 uM after 5 days; format: ADME, organism-based; settings: in vivo, 120 h
Penicillium digitatum [11] = test: Drug metabolism in Penicillium digitatum assessed as compound level at 78.2 uM after 5 days; format: ADME, organism-based; settings: in vivo, 120 h
Penicillium digitatum [12] = test: Drug metabolism in Penicillium digitatum assessed as 6,7-furano-5-(6',7'-dihydroxygeranyloxy)-2-hydroxy-hydrocoumaric acid level at 78.2 uM after 5 days; format: ADME, organism-based; settings: in vivo, 120 h
[13] = Drug metabolism in Penicillium ulaiense assessed as bergaptol level at 78.2 uM after 5 days; format: ADME; settings: 120 h
[14] = Drug metabolism in Penicillium ulaiense assessed as 6',7'-dihydroxybergamottin level at 78.2 uM after 5 days; format: ADME; settings: 120 h
Penicillium digitatum [15] = test: Drug metabolism in Penicillium digitatum assessed as 6',7'-dihydroxybergamottin level at 78.2 uM after 5 days; format: ADME, organism-based; settings: in vivo, 120 h
Botrytis cinerea [16] = test: Drug metabolism in Botrytis cinerea assessed as 6,7-furano-5-(6',7'-dihydroxygeranyloxy)-2-hydroxy-hydrocoumaric acid level at 78.2 uM after 5 days; format: ADME, organism-based; settings: in vivo, 120 h
Botrytis cinerea [17] = test: Drug metabolism in Botrytis cinerea assessed as 6',7'-dihydroxybergamottin level at 78.2 uM after 5 days; format: ADME, organism-based; settings: in vivo, 120 h
Lasiodiplodia theobromae [18] = test: Drug metabolism in Lasiodiplodia theobromae assessed as compound level at 78.2 uM after 5 days; format: ADME, organism-based; settings: in vivo, 120 h
[19] = Drug metabolism in submerged cultures of Penicillium ulaiense assessed as decrease in compound concentration at 23.7 uM after 8 days; format: ADME; settings: 192 h
[20] = Drug metabolism in Penicillium ulaiense assessed as compound level at 78.2 uM after 5 days; format: ADME; settings: 120 h
[21] = Drug metabolism in Phomopsis citri assessed as 6,7-furano-5-(6',7'-dihydroxygeranyloxy)-2-hydroxy-hydrocoumaric acid level at 78.2 uM after 5 days; format: ADME; settings: diaporthe citri, 120 h
[22] = Drug metabolism in Penicillium ulaiense assessed as decrease in 6',7'-dihydroxybergamottin level at 23.7 uM after 4 days; format: ADME; settings: 96 h
Geotrichum [23] = test: Drug metabolism in Geotrichum citri assessed as 6,7-furano-5-(6',7'-dihydroxygeranyloxy)-2-hydroxy-hydrocoumaric acid level at 78.2 uM after 5 days; format: ADME, organism-based; settings: in vivo, 120 h
Geotrichum [24] = test: Drug metabolism in Geotrichum citri assessed as production of 6,7-furano-5-(6',7'-dihydroxygeranyloxy)-2-hydroxy-hydrocoumaric acid at 23.7 uM after 2 days; format: ADME, organism-based; settings: in vivo, 48 h
[25] = Drug metabolism in Phomopsis citri assessed as compound level at 78.2 uM after 5 days; format: ADME; settings: diaporthe citri, 120 h
[26] = Drug metabolism in Penicillium ulaiense assessed as 6,7-furano-5-(6',7'-dihydroxygeranyloxy)-2-hydroxy-hydrocoumaric acid level at 78.2 uM after 5 days; format: ADME; settings: 120 h
Geotrichum [27] = test: Drug metabolism in Geotrichum citri assessed as 6',7'-dihydroxybergamottin level at 78.2 uM after 5 days; format: ADME, organism-based; settings: in vivo, 120 h
[28] = Drug metabolism in Phomopsis citri assessed as bergaptol level at 78.2 uM after 5 days; format: ADME; settings: diaporthe citri, 120 h
[29] = Drug metabolism in submerged cultures of Penicillium ulaiense assessed as decrease in compound concentration at 23.7 uM after 2 days; format: ADME; settings: read-out: Drug metabolism

IC50 (Cytochrome P450 3A4): 810 nM
Compound: C/C(=C\COc1c2ccoc2cc2oc(=O)ccc12)CC[C@@H](O)C(C)(C)O

IC50 (Cytochrome P450 3A4): > 172000 nM
Compound: C/C(=C\COc1c(CCC(=O)O)c(O)cc2occc12)CCC(O)C(C)(C)O (stereo unspecified)

Drug metabolism (Botrytis cinerea [1]): 1.3 µM
Drug metabolism [2]: < 0.5 µM
Drug metabolism [3]: Active
Drug metabolism (Lasiodiplodia theobromae [4]): 10.3 µM
Drug metabolism (Geotrichum [5]): 3.9 µM
Drug metabolism [6]: 3.3 µM
Drug metabolism [7]: Active
Drug metabolism (Geotrichum [8]): 8.2 µM
Drug metabolism (Lasiodiplodia theobromae [9]): 23.9 µM
Drug metabolism (Lasiodiplodia theobromae [10]): 12.6 µM
Drug metabolism (Penicillium digitatum [11]): 0.1 µM
Drug metabolism (Penicillium digitatum [12]): 32 µM
Drug metabolism [13]: 0.3 µM
Drug metabolism [14]: 0.5 µM
Drug metabolism (Penicillium digitatum [15]): 8.3 µM
Drug metabolism (Botrytis cinerea [16]): 25.1 µM
Drug metabolism (Botrytis cinerea [17]): 5 µM
Drug metabolism (Lasiodiplodia theobromae [18]): 1.1 µM
Drug metabolism [19]: Active
Drug metabolism [20]: 0.7 µM
Drug metabolism [21]: 4.1 µM
Drug metabolism [22]: Active
Drug metabolism (Geotrichum [23]): 24.3 µM
Drug metabolism (Geotrichum [24]): 7.4 µM
Drug metabolism [25]: 1.3 µM
Drug metabolism [26]: 46.6 µM
Drug metabolism (Geotrichum [27]): 7.3 µM
Drug metabolism [28]: 0.7 µM
metabolised at 48 h, 23.7 µM [29]: > 90%
Compound: C/C(=C\COc1c2ccoc2cc2oc(=O)ccc12)CCC1OC1(C)C (stereo unspecified) [6',7'-EPOXYBERGAMOTTIN]
